Read-outs that look alike come from different tables or passages of the source.
Key:
[1] = tested on: P. berghei-ANKA-GFP-LucCON liver stage parasites in HepG2-A16-CD81EGFP cells; assay: P. berghei liver stage Pb-Luc assay, Method 1 (UCSD, 1536-well); format: cell-based, Plasmodium berghei; settings: P. berghei liver stage, averaged response (percent); for Average P. berghei 1 µM response (%): the header list (r8) defines it as the 1 µM dose
HepG2-A16-CD81EGFP cells = settings: averaged response (percent)
[2] = tested on: P. falciparum Dd2 (clone B2) asexual blood stage parasites; assay: P. falciparum Dd2 asexual blood stage SYBR Green-I 72 h proliferation assay (qHTS); format: cell-based, Plasmodium falciparum; settings: averaged P. falciparum asexual blood stage potency, log10 of AC50 in M
in vitro = settings: human, hepg2-a16-cd81egfp cells, % viability
[3] = HepG2, the header list (r10) describes it as the 1 µM dose

| Structure (SMILES) | Average P. berghei 3 µM response( %) [1] [%] | Average P. berghei 1 µM response (%) [1] [%] | Average HepG2 3 µM response( %) (HepG2-A16-CD81EGFP cells; HepG2, 3 µM dose) [%] | Average HepG2 3 µM response( %) (HepG2-A16-CD81EGFP cells; [3]) [%] | Pf ABS Log AC50 (M) [2] [M] | viability at 3 µM (in vitro) [%] |
| --- | --- | --- | --- | --- | --- | --- |
| Cc1ccc(NC2=C(N3CCCCC3)C(=O)c3ccccc3C2=O)cc1 [MLS000532222] | 14 | 71 | 77 | 99 | -6.600 | 76.9 |
| N=c1c2c(n(Cc3ccc(F)cc3)c3c1CCC3)CCC2 [MLS000107591] | 16 | 68 | 78 | 100 | -5.862 | 77.7 |
| CCCCc1c(C)c(C#N)c2nc3ccccc3n2c1Nc1c(C)n(C)n(-c2ccccc2)c1=O [MLS000555448] | 121 | 128 | 90 | 93 | -5.662 | 90.2 |
| NC1=NC[C@@H](Cc2ccc(O)cc2)N1CCCCC1CCCCC1 [MLS000888822] | 40 | 86 | 98 | 113 | -5.487 | 97.6 |
| CCc1ccccc1OC[C@@H](O)CN[C@@H]1CCCc2ccccc21 [NCGC00025196] | 77 | 73 | 92 | 95 | -5.800 | 91.7 |
| CCOc1ccc(-n2c(SCC(=O)OC)nc3sc4c(c3c2=O)CCN(C)C4)cc1 [MLS001213437] | 102 | 88 | 103 | 112 | -5.950 | 103 |
| COc1ccc(C2c3[nH]c4ccccc4c3C[C@H]3C(=O)N(C4CCN(Cc5ccccc5)CC4)CC(=O)N23)cc1OC (some centres unmarked) [MLS001215281] | 73 | 94 | 90 | 101 | -5.612 | 90.3 |
| Cc1cc(N2CCN(C3CCCC3)CC2)n2c(nc3ccccc32)c1C#N [MLS000039270] | 94 | 106 | 90 | 89 | -6.262 | 89.8 |
| CN(C(Cc1ccc(O[S+](=O)([O-])c2cccc3cnccc23)cc1)C(=O)N1CCN(c2ccccc2)CC1)[S+](=O)([O-])c1cccc2cnccc12 (centres unmarked) [NCGC00163381] | 77 |  | 79 | 87 | -6.300 | 79.2 |
| Cc1cc(Nc2cccc(C(F)(F)F)c2)nc2ccc(NC(=O)c3cncc(Br)c3)cc12 [NCGC00124348] | 38 | 76 | 101 | 107 | -5.625 |  |
| CCN(CC)CCn1c(=N)n(CC(O)COc2ccccc2C)c2ccccc21 (centres unmarked) [NCGC00101835] | 72 | 117 | 100 | 104 | -5.475 |  |
| CCN(C(=O)CSc1nc(-c2ccc(C(C)C)cc2)no1)c1ccccc1 [NCGC00127904] | 98 | 117 | 105 | 102 | -6.025 |  |
| Cc1ccc(-n2c(C)cc(C(=O)OCC(=O)N(C)C3CCS(=O)(=O)C3)c2C)cc1 (centres unmarked) [MLS000098265] | 106 | 136 | 101 | 101 | -5.487 |  |
| O=C(c1ccc([N+](=O)[O-])o1)N1CCN(c2nc3c(F)cc(F)cc3s2)CC1 [MLS001234228] | 65 | 77 | 107 | 103 | -5.462 |  |
| COc1ccc(C2=C(Nc3ccc(C)cc3)c3ccccc3C2=O)cc1 [MLS000563980] | 25 | 81 | 89 | 94 | -5.637 |  |
| O=C(/C=C/c1ccco1)NC(=S)Nc1ccccc1N1CCCC1 [MLS000663784] | 104 | 113 | 105 | 105 | -5.575 |  |
| CCN1CCN(C(=O)c2ccc3c(c2)N(Cc2ccccc2F)C(=O)c2ccccc2[S+]3[O-])CC1 (centres unmarked) [NCGC00109528] | 103 | 106 | 98 | 98 | -6.075 |  |
| N=c1n(N)c2ccccc2n1CC(=O)c1ccc(Br)cc1 [MLS001183984] | 137 | 110 | 102 | 102 | -5.837 |  |
| O=C(Nc1c(C(=O)c2ccccc2)oc2ccccc12)c1cc(-c2ccccc2O)n[nH]1 [MLS000331861] | 116 | 84 | 101 | 103 | -5.837 |  |
| c1cc(Nc2ncnc3sc4c(c23)CCC4)ccn1 [MLS000681348] | 95 | 92 | 103 | 103 | -5.462 |  |
| COc1ccc(-c2noc(-c3cccn3CC(=O)Nc3ccccc3)n2)cc1F [NCGC00445500] | 183 | 170 | 104 | 101 | -5.625 |  |
| CCC(CC)c1cc([C@H]2CN3CC[C@H]2C[C@@H]3CNC(C)=O)nc(-c2ccncc2)n1 [NCGC00394634] | 53 | 49 | 106 | 107 | -4.814 |  |
| COc1ccc2[nH]c(C[C@@H]3C[C@@H](C(C)C)[C@H](CNCc4ccccc4OC)C=C3C)nc2c1 [NCGC00392082] | 47 | 75 | 97 | 99 | -5.025 |  |
| CCOC(=O)c1cn(CC)c2cc(N3CCSCC3)c(F)cc2c1=O [MLS000038775] | 21 |  | 85 | 89 | -6.012 |  |
| CCN1CCN(C(=O)c2ccc3c(c2)N(Cc2c(F)cccc2Cl)C(=O)c2ccccc2S3)CC1 [NCGC00108184] | 76 | 94 | 107 | 105 | -8.075 |  |
| COc1cccc(OC)c1C(=O)NC(S)=Nc1ccc2c(c1)C(=O)N(C)C2=O [MLS000331897] | 113 | 122 | 104 | 104 | -6.025 |  |
